Marks after values point to notes of the source that are not given here.
Experiments:
Format in all cases: in vivo
[1] = Pharmacokinetic parameters in SD rat plasma
Experimental: (§1) 4 healthy SD rats aged 6-9 weeks were selected and randomly divided into two groups, with 2 rats in each group. One group was given the test compound at 2 mg/kg by intravenous injection, and the other group was given the test compound at 10 mg/kg by intragastric administration. Plasma samples were collected at 0.083, 0.25, 0.5, 1.0, 2.0, 4.0, 6.0, 8.0, and 24 h after administration for the intravenous injection group and intragastric administration group, respectively. Quantitative analysis of all biological samples was carried out by LC-MS/MS method, and the WinNonlin™ Version 6.3 (Pharsight, Mountain View, CA) pharmacokinetic software was used to calculate the relevant pharmacokinetic parameters by the non-compartmental model linear logarithmic trapezoidal method. AUC0-last represents area under the plasma concentration-time curve from time zero to the last detectable concentration time point; p.o. represents oral; i.v. represents intravenous injection; T1/2 represents half-life; CL represents clearance rate; Vd represents apparent volume of distribution; Cmax represents peak concentration; Tmax represents time to peak; F % represents oral bioavailability.
as §1, with “healthy male” for “healthy”

[2] = Pharmacokinetic parameters in Beagle dog plasma
Experimental: as §1, with “4 healthy male Beagle dogs were selected” for “4 healthy SD rats aged 6-9 weeks were selected”, “with 2 dogs in each” for “with 2 rats in each”, “compound at 1 mg/kg by” for “compound at 2 mg/kg by”, “compound at 5 mg/kg by” for “compound at 10 mg/kg by”, “collected at 0.033, 0.083, 0.25,” for “collected at 0.083, 0.25,”

SD rats = test: Effect on sleep in SD rats by electroencephalogram/electromyography telemetry; conditions: SD rat EEG, Mean±SEM; for Sleep latency: blank vehicle 32 ± 3.1; for NREM sleep time within 7 h after administration: blank vehicle 102 ± 18; for Total awake time within 7 h after administration: blank vehicle 303 ± 20
Experimental: Test purpose: to evaluate the effect of test substance on sleep in SD rats by electroencephalogram/electromyography telemetry (EEG).
Test scheme: 36 male SD rats aged 5-6 weeks needed an adaptation period of 5-15 days after arriving at the facility, during which the experimental animals were placed in an alternating light and dark environment for 12 h for adaptation (light on: 19:00; light off: 07:00) to adjust the rhythm time, and the health of the animals was monitored every day. Animals needed to be surgically implanted with electroencephalogram electrode and electromyography electrode for later telemetry data collection. On the day of the operation experiment, the animals were anesthetized with Zoletil (i.p., 20 mg/kg) combined with xylazine (i.p., 8 mg/kg). After anesthesia, the animals were fixed by brain stereotaxic apparatus. After the head has hair clipped and was disinfected, the skin of the head was cut, and the four corners were clamped with hemostats to fully expose the skull. The periosteum was peeled off and wiped with dry absorbent cotton until the surface was clean. A hole was drilled according to the type of implanter, and an electrode was implanted and in contact with the dura mater. The electrode was fixed on the skull with dental cement. At the same time, the cement dripping on the tissue and skin was cleaned up. The 2 electromyography electrodes were respectively inserted into the neck muscles in parallel, and the two ends were fixed with sutures to prevent their ends from touching each other. The implanter was then placed under the skin, and the surgical wound was sutured and sterilized. After the operation, the rats were carefully placed in a clean recovery cage, lying on their sides to ensure a smooth airway. The rats were raised in a single cage and placed in a shielded recovery room, in which the light and dark automatically alternated for 12 h (light on: 19:00, light off: 07:00), the temperature was 20-26° C., and the relative humidity was 40-70%. After the operation, the animals were given nursing care for 3 days. The surgical incision was treated with cephradine powder locally, gentamicin at 4-8 mg/kg was subcutaneously administered, and meloxicam at 0.1 mL/rat was injected subcutaneously for 3 consecutive days. The experiment was carried out after 7-10 days of recovery and the animals were randomly divided into groups according to their weight the day before the experiment.
On the day of the experiment, the basic electroencephalogram and electromyography were recorded first, and then the administration began. During and after the administration, the electroencephalogram and electromyography were recorded continuously until 24 h after the administration. Raw data were collected by DSI system Ponemah software and analyzed by NeuroScore software. The experimental data were represented by the mean±standard error (Mean±SEM), and statistical analysis was performed using the one-way variance method. Compared with the blank vehicle group, P<0.05 indicated a significant difference, and represented as *; P<0.01 indicated a very significant difference, and represented as **; P<0.001 indicated an extremely significant difference, and represented as ***.

[3] = male, Sprague-Dawley (SD), plasma, iv, i.v. 2 mg/kg
[4] = male, Sprague-Dawley (SD), plasma, po, p.o. 10 mg/kg

AUC(0-t) [1, 3]: 1.76 µM·h
clearance [1, 3]: 44 mL/min/kg
half-life [1, 3]: 12 min
Vd ([1]; male, Sprague-Dawley (SD), plasma, iv, i.v. 2 mg/kg, read-out: Vdss): 0.57 L/kg
AUC(0-t) [1, 4]: 1.45 µM·h
Cmax [1, 4]: 1030 nM
Tmax [1, 4]: 15 min
F ([1]; p.o. 10 mg/kg vs i.v. 2 mg/kg): 17%
AUC(0-t) ([2]; male, plasma, iv, i.v. 1 mg/kg): 15.3 µM·h
clearance ([2]; male, plasma, iv, i.v. 1 mg/kg): 2.57 mL/min/kg
half-life ([2]; male, plasma, iv, i.v. 1 mg/kg): 167 min
Vd ([2]; male, plasma, iv, i.v. 1 mg/kg, read-out: Vdss): 0.41 L/kg
AUC(0-t) ([2]; male, plasma, po, p.o. 5 mg/kg): 26.2 µM·h
Cmax ([2]; male, plasma, po, p.o. 5 mg/kg): 6.18 µM
Tmax ([2]; male, plasma, po, p.o. 5 mg/kg): 1 h
F ([2]; p.o. 5 mg/kg vs i.v. 1 mg/kg): 34%
Structure (SMILES): COc1ccc(-n2nccn2)c(C(=O)N2C(c3nc4ccc(OC)cc4[nH]3)CC3CC32)c1 (stereo not shown) [Compound 8]
Sleep latency (SD rats; 5 mg/kg): 27 ± 8.1 min
NREM sleep time within 7 h after administration (SD rats; 5 mg/kg): 129 ± 17 min
Total awake time within 7 h after administration (SD rats; 5 mg/kg): 274 ± 19 min
Sleep latency (SD rats; 10 mg/kg): 15 ± 2.9** min
NREM sleep time within 7 h after administration (SD rats; 10 mg/kg): 144 ± 16 min
Total awake time within 7 h after administration (SD rats; 10 mg/kg): 250 ± 21 min
Sleep latency (SD rats; 30 mg/kg): 7 ± 1.3*** min
NREM sleep time within 7 h after administration (SD rats; 30 mg/kg): 171 ± 11** min
Total awake time within 7 h after administration (SD rats; 30 mg/kg): 228 ± 12* min

Reference: patent publication US12583841B2, “Tetrahydropyrrolocyclic compound and application thereof” (Breakthrough Pharmaceuticals Inc., priority 2021, dated 2026)
